Assay results taken from the CheMixHub viscosity set.

Assay: xn = mol fraction of the nth substance listed

CN(C)c1ccccc1 + CC(C)O
303.15 K, 101 kPa
Conditions | viscosity [mPa·s]
x1 = 0.0564 | 1.727
x1 = 0.1136 | 1.655
x1 = 0.1989 | 1.56
x1 = 0.2689 | 1.492
x1 = 0.3245 | 1.439
x1 = 0.3767 | 1.401
x1 = 0.4258 | 1.369
x1 = 0.4878 | 1.33
x1 = 0.5655 | 1.288
x1 = 0.6305 | 1.259
x1 = 0.7385 | 1.22
x1 = 0.8187 | 1.199
x1 = 0.9243 | 1.18

CCCCC(C)O (stereo unspecified) + CC(C)OC(C)C
viscosity [mPa·s], 100 kPa
Conditions | x2 = 0.0806 | x2 = 0.1592 | x2 = 0.2412 | x2 = 0.3508 | x2 = 0.4391 | x2 = 0.5594 | x2 = 0.6497 | x2 = 0.7378 | x2 = 0.8483 | x2 = 0.9386
293.15 K | 4.51 | 3.97 | 3.48 | 2.91 | 2.49 | 1.97 | 1.6 | 1.26 | 0.84 | 0.531
298.15 K | 3.61 | 3.16 | 2.76 | 2.3 | 1.97 | 1.56 | 1.275 | 1.02 | 0.706 | 0.465
303.15 K | 2.89 | 2.53 | 2.2 | 1.83 | 1.567 | 1.25 | 1.034 | 0.84 | 0.6 | 0.42
308.15 K | 2.38 | 2.08 | 1.825 | 1.53 | 1.32 | 1.06 | 0.88 | 0.715 | 0.52 | 0.38
313.15 K | 2 | 1.75 | 1.54 | 1.29 | 1.115 | 0.906 | 0.756 | 0.62 | 0.46 | 0.35
318.15 K | 1.69 | 1.49 | 1.31 | 1.11 | 0.962 | 0.783 | 0.66 | 0.55 | 0.416 | 0.32
323.15 K | 1.44 | 1.27 | 1.12 | 0.95 | 0.83 | 0.68 | 0.58 | 0.49 | 0.38 | 0.295

FC(F)(F)c1ccccc1 + CC(Cl)(Cl)Cl
298.15 K, 101.33 kPa
Conditions | viscosity [mPa·s]
x2 = 0.103 | 0.5617
x2 = 0.201 | 0.572
x2 = 0.301 | 0.5865
x2 = 0.402 | 0.6017
x2 = 0.502 | 0.6199
x2 = 0.602 | 0.6413
x2 = 0.701 | 0.6677
x2 = 0.8 | 0.7
x2 = 0.85 | 0.7179

CN(C)c1ccccc1 + CCC(=O)O
viscosity [mPa·s], 101 kPa
Conditions | x2 = 0.1014 | x2 = 0.2025 | x2 = 0.305 | x2 = 0.3966 | x2 = 0.5057 | x2 = 0.6027 | x2 = 0.6922 | x2 = 0.8012 | x2 = 0.8905 | x2 = 0.8987
298.15 K | 1.364 | 1.416 | 1.478 | 1.527 | 1.583 | 1.651 | 1.69 | 1.657 | 1.467 | –
303.15 K | – | – | – | – | – | – | – | – | – | 1.225

C=CC#N + CCC(=O)c1ccccc1
308.15 K, 101 kPa
Conditions | viscosity [mPa·s]
x2 = 0.1051 | 0.405
x2 = 0.1752 | 0.4545
x2 = 0.2496 | 0.513
x2 = 0.3126 | 0.5731
x2 = 0.4246 | 0.6893
x2 = 0.5385 | 0.8078
x2 = 0.6672 | 0.9571
x2 = 0.8184 | 1.161

CC(=O)CC(C)=O + CCC(C)(C)O
298.15 K, 101 kPa
Conditions | viscosity [mPa·s]
x1 = 0.1 | 2.481
x1 = 0.2 | 1.809
x1 = 0.3 | 1.39
x1 = 0.4 | 1.138
x1 = 0.5 | 0.987
x1 = 0.6 | 0.893
x1 = 0.7 | 0.827
x1 = 0.8 | 0.776
x1 = 0.9 | 0.733

CCC(C)(C)O + CCC(C)=O
Conditions | viscosity [mPa·s]
293.15 K, 101 kPa, x2 = 0.2341 | 2.105

CN(C)c1ccccc1 + CCC(C)=O
viscosity [mPa·s], 101 kPa
Conditions | 303.15 K | 308.15 K
x1 = 0.0689 | 0.487 | 0.438
x1 = 0.1256 | 0.574 | 0.516
x1 = 0.1905 | 0.671 | 0.605
x1 = 0.2652 | 0.776 | 0.701
x1 = 0.3256 | 0.853 | 0.773
x1 = 0.3905 | 0.926 | 0.84
x1 = 0.4621 | 0.993 | 0.905
x1 = 0.5362 | 1.048 | 0.958
x1 = 0.6058 | 1.086 | 0.997
x1 = 0.6753 | 1.113 | 1.025
x1 = 0.7416 | 1.129 | 1.045
x1 = 0.8056 | 1.14 | 1.06
x1 = 0.8826 | 1.149 | 1.076

C=CC#N + CCC(C)O
viscosity [mPa·s], 101.33 kPa
Conditions | x1 = 0.1033 | x1 = 0.2014 | x1 = 0.301 | x1 = 0.4055 | x1 = 0.5087 | x1 = 0.6049 | x1 = 0.7009 | x1 = 0.803 | x1 = 0.8992
298.15 K | 1.828 | 1.319 | 0.99 | 0.775 | 0.63 | 0.536 | 0.456 | 0.418 | 0.378
303.15 K | 1.567 | 1.165 | 0.887 | 0.704 | 0.582 | 0.499 | 0.438 | 0.391 | 0.358
308.15 K | 1.361 | 1.024 | 0.799 | 0.644 | 0.539 | 0.465 | 0.413 | 0.373 | 0.342

CC(C)(C)Br + CCC(C)O
viscosity [mPa·s], 101.3 kPa
Conditions | x1 = 0.1001 | x1 = 0.2023 | x1 = 0.3034 | x1 = 0.4041 | x1 = 0.5076 | x1 = 0.605 | x1 = 0.7049 | x1 = 0.8014 | x1 = 0.8997
298.15 K | 2.174 | 1.629 | 1.302 | 1.105 | 0.9569 | 0.876 | 0.8006 | 0.768 | 0.7327
313.15 K | 1.386 | 1.108 | 0.9333 | 0.8074 | 0.7201 | 0.6655 | 0.6235 | 0.6023 | 0.5859

CCCCN(CCCC)CCCC + CCC(C)O
303.15 K, 101 kPa
Conditions | viscosity [mPa·s]
x1 = 0.01127 | 2.456
x1 = 0.0218 | 2.439
x1 = 0.03265 | 2.423
x1 = 0.04214 | 2.409
x1 = 0.04957 | 2.399
x1 = 0.05793 | 2.387
x1 = 0.06851 | 2.372
x1 = 0.07785 | 2.359
x1 = 0.08821 | 2.345

CN(C)c1ccccc1 + CCC(C)O
303.15 K, 101 kPa
Conditions | viscosity [mPa·s]
x1 = 0.0452 | 2.686
x1 = 0.0845 | 2.638
x1 = 0.1321 | 2.582
x1 = 0.1893 | 2.512
x1 = 0.2452 | 2.442
x1 = 0.2756 | 2.402
x1 = 0.3065 | 2.362
x1 = 0.3655 | 2.279
x1 = 0.4292 | 2.183
x1 = 0.4906 | 2.086
x1 = 0.6021 | 1.893
x1 = 0.7323 | 1.65
x1 = 0.8911 | 1.353

CC(=O)CC(C)=O + CCCC(C)O
298.15 K, 101 kPa
Conditions | viscosity [mPa·s]
x1 = 0.1 | 2.324
x1 = 0.2 | 1.65
x1 = 0.3 | 1.276
x1 = 0.4 | 1.082
x1 = 0.5 | 0.983
x1 = 0.6 | 0.918
x1 = 0.7 | 0.855
x1 = 0.8 | 0.787
x1 = 0.9 | 0.725

CCCCN(CCCC)CCCC + CCCCCC
viscosity [mPa·s], 101 kPa
Conditions | x1 = 0.0982 | x1 = 0.1945 | x1 = 0.3994 | x1 = 0.495 | x1 = 0.5384 | x1 = 0.7924 | x1 = 0.903
303.15 K | 0.3305 | 0.3909 | 0.5434 | 0.623 | 0.6623 | 0.923 | 1.05
313.15 K | 0.289 | 0.3449 | 0.4813 | 0.5536 | 0.588 | 0.8088 | 0.91

Cc1ccc(C(C)C)cc1 + CCCCCC
298.15 K, 101.33 kPa
Conditions | viscosity [mPa·s]
x2 = 0.0316 | 0.768
x2 = 0.0656 | 0.745
x2 = 0.0967 | 0.723
x2 = 0.1908 | 0.662
x2 = 0.2812 | 0.599
x2 = 0.3795 | 0.538
x2 = 0.5183 | 0.474
x2 = 0.6271 | 0.424
x2 = 0.7093 | 0.393
x2 = 0.8209 | 0.349
x2 = 0.9331 | 0.314

CCCCN(CCCC)CCCC + CCCCCCCC
viscosity [mPa·s], 101 kPa
Conditions | x1 = 0.0983 | x1 = 0.1934 | x1 = 0.395 | x1 = 0.4909 | x1 = 0.5915 | x1 = 0.7854 | x1 = 0.897
303.15 K | 0.532 | 0.5833 | 0.7038 | 0.7674 | 0.838 | 0.9861 | 1.079
313.15 K | 0.4675 | 0.5129 | 0.6183 | 0.6727 | 0.734 | 0.8553 | 0.9291

CCCCC(C)O (stereo unspecified) + CCCCCCCCCCCC
298.15 K, 101 kPa
Conditions | viscosity [mPa·s]
x2 = 0.0555 | 3.6
x2 = 0.0999 | 3.24
x2 = 0.1555 | 2.84
x2 = 0.1999 | 2.55
x2 = 0.2554 | 2.24
x2 = 0.2999 | 2.01
x2 = 0.3555 | 1.77
x2 = 0.3998 | 1.6
x2 = 0.4555 | 1.42
x2 = 0.4999 | 1.31
x2 = 0.5554 | 1.19
x2 = 0.5998 | 1.12
x2 = 0.6554 | 1.05
x2 = 0.6999 | 1.02
x2 = 0.7555 | 1
x2 = 0.7997 | 1
x2 = 0.8555 | 1.02
x2 = 0.8998 | 1.04
x2 = 0.9555 | 1.09

CCCCCCc1ccccc1 + CCCCCCCCCCCCCCCC
viscosity [mPa·s], 102 kPa
Conditions | x1 = 0.1344 | x1 = 0.259 | x1 = 0.3742 | x1 = 0.4819 | x1 = 0.5823 | x1 = 0.6747 | x1 = 0.765 | x1 = 0.848 | x1 = 0.9262
293.15 K | 3.12 | 2.85 | 2.63 | 2.43 | 2.25 | 2.11 | 1.98 | 1.86 | 1.77
303.15 K | 2.49 | 2.3 | 2.13 | 1.98 | 1.85 | 1.74 | 1.64 | 1.55 | 1.47
313.15 K | 2.04 | 1.9 | 1.76 | 1.65 | 1.55 | 1.46 | 1.38 | 1.31 | 1.25
323.15 K | 1.7 | 1.59 | 1.49 | 1.4 | 1.32 | 1.25 | 1.18 | 1.13 | 1.08
